Measurements as given in article doi:10.1101/2023.05.15.540887, “Comparative analysis of drug-like EP300/CREBBP acetyltransferase inhibitors” (bioRxiv, 2023).

How the values were obtained:
[1] = tested on: MDA-MB-231/ATCC; experiment: NCI-60 growth inhibition (sulforhodamine B); type: cell-based; conditions: Homo sapiens, Breast Cancer, negative log of Molar value, LCONC -8, EXPID 2301NS84, read-out: IC50 NLOGVALUE
[2] = tested on: SF-295; experiment: NCI-60 growth inhibition (sulforhodamine B); type: cell-based, human; conditions: SF-295 (CNS Cancer), negative log of Molar conc., LCONC -8
[3] = tested on: MOLT-4; experiment: NCI-60 growth inhibition (sulforhodamine B); type: cell-based, human; conditions: MOLT-4 (Leukemia), negative log of Molar conc., LCONC -8
[4] = tested on: SK-OV-3; experiment: NCI-60 growth inhibition (sulforhodamine B); type: cell-based; conditions: Homo sapiens, SK-OV-3, Ovarian Cancer, negative log of Molar value, LCONC -8, EXPID 2301NS84
[5] = tested on: RXF393; experiment: NCI-60 growth inhibition (sulforhodamine B); type: cell-based; conditions: Homo sapiens, RXF 393, Renal Cancer, negative log of Molar value, LCONC -8, EXPID 2301NS84
[6] = tested on: COLO205; experiment: NCI-60 growth inhibition (sulforhodamine B); type: cell-based, human; conditions: COLO 205 (Colon Cancer), negative log of Molar conc., LCONC -8
[7] = tested on: HOP-92; experiment: NCI-60 growth inhibition (sulforhodamine B); type: cell-based, human; conditions: HOP-92 (Non-Small Cell Lung Cancer), negative log of Molar conc., LCONC -8
[8] = tested on: IGROV1; experiment: NCI-60 growth inhibition (sulforhodamine B); type: cell-based, human; conditions: IGROV1 (Ovarian Cancer), negative log of Molar conc., LCONC -8
[9] = tested on: K-562; experiment: NCI-60 growth inhibition (sulforhodamine B); type: cell-based, human; conditions: K-562 (Leukemia), negative log of Molar conc., LCONC -8
[10] = tested on: SK-MEL-5; experiment: NCI-60 growth inhibition (sulforhodamine B); type: cell-based, human; conditions: SK-MEL-5 (Melanoma), negative log of Molar conc., LCONC -8
[11] = tested on: HCT-116; experiment: NCI-60 growth inhibition (sulforhodamine B); type: cell-based, human; conditions: HCT-116 (Colon Cancer), negative log of Molar conc., LCONC -8
[12] = tested on: CCRF-CEM; experiment: NCI-60 growth inhibition (sulforhodamine B); type: cell-based, human; conditions: CCRF-CEM (Leukemia), negative log of Molar conc., LCONC -8
[13] = tested on: DU-145; experiment: NCI-60 growth inhibition (sulforhodamine B); type: cell-based; conditions: Homo sapiens, DU-145, Prostate Cancer, negative log of Molar value, LCONC -8, EXPID 2301NS84
[14] = tested on: EKVX; experiment: NCI-60 growth inhibition (sulforhodamine B); type: cell-based, human; conditions: EKVX (Non-Small Cell Lung Cancer), negative log of Molar conc., LCONC -8
[15] = tested on: MCF10A PANK4 KO+PANK4 mutant (D623A) cells; experiment: Sulforhodamine B cell growth assay, MCF10A PANK4 KO+PANK4 mutant; type: cell-based; conditions: Homo sapiens; MCF-10A KO+PANK4 mutant, 72 h
[16] = tested on: UACC-257; experiment: NCI-60 growth inhibition (sulforhodamine B); type: cell-based, human; conditions: UACC-257 (Melanoma), negative log of Molar conc., LCONC -8
[17] = tested on: OVCAR-5; experiment: NCI-60 growth inhibition (sulforhodamine B); type: cell-based, human; conditions: OVCAR-5 (Ovarian Cancer), negative log of Molar conc., LCONC -8
[18] = tested on: SNB-19; experiment: NCI-60 growth inhibition (sulforhodamine B); type: cell-based, human; conditions: SNB-19 (CNS Cancer), negative log of Molar conc., LCONC -8
[19] = tested on: NCI-H23; experiment: NCI-60 growth inhibition (sulforhodamine B); type: cell-based, human; conditions: NCI-H23 (Non-Small Cell Lung Cancer), negative log of Molar conc., LCONC -8
[20] = tested on: SW-620; experiment: NCI-60 growth inhibition (sulforhodamine B); type: cell-based, human; conditions: SW-620 (Colon Cancer), negative log of Molar conc., LCONC -8
[21] = tested on: M14; conditions: M14 (Melanoma); negative log of Molar conc.; LCONC -8
[22] = Homo sapiens, read-out: GI50 NLOGVALUE
[23] = Homo sapiens, read-out: IC50 NLOGVALUE (converted)
[24] = Homo sapiens, read-out: LC50 NLOGVALUE
[25] = read-out: GI50 NLOGVALUE (converted)
[26] = Homo sapiens, read-out: GI50 NLOGVALUE (converted)
[27] = Homo sapiens, read-out: IC50 NLOGVALUE

For C[C@H](CN[C@@H](C(=O)Nc1ccc(-c2cnn(C)c2)cn1)c1ccccc1)c1ccc(C#N)cc1 [CPI-1612], the IC50 [1] was greater than 100 µM, the GI50 [2, 22] was less than 0.01 µM and the IC50 [2, 23] was 4.17 µM. The CC50 [2, 24] was greater than 100 µM, the “TGI NLOGVALUE” [2] was 4 and the GI50 [3, 22] was less than 0.01 µM. The IC50 [3, 23] was 0.0209 µM, the “TGI NLOGVALUE” [3] was 4.53 and the GI50 ([4]; read-out: GI50 NLOGVALUE) was greater than 100 µM. The IC50 ([4]; read-out: IC50 NLOGVALUE) was greater than 100 µM, the CC50 ([4]; read-out: LC50 NLOGVALUE) was greater than 100 µM and the GI50 [5, 25] was 55 µM. The IC50 ([5]; read-out: IC50 NLOGVALUE) was greater than 100 µM, the CC50 ([5]; read-out: LC50 NLOGVALUE) was greater than 100 µM and the “TGI NLOGVALUE” [6] was 4. For the same compound, the GI50 [6, 26] was 0.0245 µM, the IC50 [6, 23] was 0.417 µM and the “TGI NLOGVALUE” [7] was 4. For the same compound, the GI50 [7, 26] was 1.62 µM, the IC50 [7, 27] was greater than 100 µM and the CC50 [7, 24] was greater than 100 µM. It also gave a GI50 ([8]; Homo sapiens, IGROV-1, read-out: GI50 NLOGVALUE (converted)) of 0.0759 µM, an IC50 ([8]; Homo sapiens, IGROV-1, read-out: IC50 NLOGVALUE (converted)) of 57.5 µM and a CC50 ([8]; Homo sapiens, IGROV-1, read-out: LC50 NLOGVALUE) greater than 100 µM. For the same compound, the “TGI NLOGVALUE” [8] was 4, the GI50 ([9]; Homo sapiens, K562, read-out: GI50 NLOGVALUE) was less than 0.01 µM and the IC50 ([9]; Homo sapiens, K562, read-out: IC50 NLOGVALUE) was less than 0.01 µM. For the same compound, the CC50 ([9]; Homo sapiens, K562, read-out: LC50 NLOGVALUE) was greater than 100 µM, the “TGI NLOGVALUE” [9] was 4 and the GI50 [10, 22] was less than 0.01 µM. For the same compound, the IC50 [10, 23] was 0.0263 µM, the CC50 [10, 24] was greater than 100 µM and the “TGI NLOGVALUE” [10] was 4.48. The “TGI NLOGVALUE” [11] was 4, the GI50 [11, 26] was 11.2 µM and the IC50 [11, 23] was 18.6 µM. For the same compound, the CC50 [11, 24] was greater than 100 µM, the “TGI NLOGVALUE” [12] was 4 and the GI50 [12, 22] was less than 0.01 µM. For the same compound, the IC50 [12, 23] was 0.135 µM, the CC50 [12, 24] was greater than 100 µM and the GI50 [13, 25] was 21.4 µM. For the same compound, the IC50 ([13]; read-out: IC50 NLOGVALUE) was greater than 100 µM, the CC50 ([13]; read-out: LC50 NLOGVALUE) was greater than 100 µM and the “TGI NLOGVALUE” [14] was 4. The GI50 [14, 26] was 1.51 µM, the IC50 [14, 27] was greater than 100 µM and the IC50 [15] was 0.102 µM. For the same compound, the IC50 [16, 27] was greater than 100 µM, the CC50 [16, 24] was greater than 100 µM and the “TGI NLOGVALUE” [16] was 4. For the same compound, the GI50 [17, 22] was greater than 100 µM, the IC50 [17, 27] was greater than 100 µM and the CC50 [17, 24] was greater than 100 µM. The “TGI NLOGVALUE” [17] was 4, the GI50 [18, 26] was 0.0955 µM and the IC50 [18, 27] was greater than 100 µM. For the same compound, the CC50 [18, 24] was greater than 100 µM, the “TGI NLOGVALUE” [18] was 4 and the GI50 [19, 26] was 0.0331 µM. The IC50 [19, 23] was 0.851 µM, the CC50 [19, 24] was greater than 100 µM and the “TGI NLOGVALUE” [19] was 4. For the same compound, the GI50 [20, 26] was 0.417 µM, the IC50 [20, 23] was 6.76 µM and the CC50 [20, 24] was greater than 100 µM. The “TGI NLOGVALUE” [20] was 4 and the “TGI NLOGVALUE” [21] was 4.
